According to publication PMC3937211, “Serine Carboxypeptidase SCPEP1 and Cathepsin A Play Complementary Roles in Regulation of Vasoconstriction via Inactivation of Endothelin-1” (PLoS Genetics, 2014):

How the values were obtained:
[1] = tested on: homogenates of cultured AVSMC; assay: Carboxypeptidase activity against ET-1 in homogenates of cultured AVSMC; format: biochemical, mouse; conditions: 50 µM ET-1
Source text: Figure 1 Scpep1 has carboxypeptidase activity against ET-1. A. Carboxypeptidase activity against ET-1 in homogenates of cultured AVSMC from WT, Scpep1 ^−/−, CathA^S190A and Scpep1 ^−/− /CathA^S190A mice as well as from the cells of Scpep1 ^−/− /CathA^S190A mice transiently transfected with pCMV-GFP and pCMV-Scpep1 plasmids. AVSMC after the passage 3 were transfected or not with Scpep1-RGS-His-Tag and pEGFP-C1 plasmids. Forty-eight hours after transfection confluent cells were harvested, homogenized and tested for carboxypeptidase activity using 50 µM ET-1 as a substrate. Data are expressed as means (±S.D.) of 3 independent experiments performed with different cell cultures. * p<0.05 and ** p<0.01 in two-tailed unpaired t-test. B. Carboxypeptidase activity against ET-1 in homogenates of cultured AVSMC from WT mice transfected with Scpep1 and CathA shRNA. AVSMC after the passage 3 were transfected with pRFP-C-RS vectors expressing shRNA for mouse CathA and Scpep1 or non-effective 29-mer scrambled shRNA as indicated. Seventy-two hours after transfection the cells were harvested, and those expressing plasmids enriched by cell-sorting, homogenized and tested for carboxypeptidase activity using 50 µM ET-1 as a substrate. […] C. Carboxypeptidase activity against ET-1 of purified recombinant Scpep1. Scpep1 carrying a His6 tag at the C-terminus was expressed in stably transfected HT1080 cells and purified by affinity chromatography on Ni-NTA resin followed by anion-exchange chromatography as described. Carboxypeptidase activity was assayed with 50 µM ET-1 as a substrate and 0.4–0.8 µg of the purified enzyme in the reaction mixture in 50 mM sodium phosphate/50 mM sodium acetate buffer at pH 5.5, 6.5 and 7.5. Bars show mean values (±S.D.) of 3 independent experiments. […] The amino acid analysis of the reaction mixture determined that Scpep1 cleaves the C-terminal amino acid (Trp21) from ET-1 (not shown). […]
Carboxypeptidase activity in cultured AVSMC was measured against 50 µM ET-1 as previously described using the method measuring the liberation rate of the C-terminal amino acid of the peptide. […]

mesenteric arteries = assay: Vessel reactivity ex vivo; set-up: species or system mouse; conditions: 10^−11–10^−8 M
Experimental: Vessel reactivity ex vivo was analyzed as described, [40]. Briefly, male mice were sacrificed at five months and their mesenteric arteries were isolated and mounted onto glass capillaries in an artereograph chamber filled with cold oxygenated Krebs solution (118.6 mM NaCl, 4.7 mM KCl, 1.2 mM KH2PO4, 1.2 mM MgSO4, 25.1 mM NaHCO3, 26 µM EDTA, 0.18% glucose, 2.5 mM CaCl2). The arteries were constantly perfused intraluminally with Krebs solution at 30 mmHg. After 45 minutes of equilibration vascular reactivity was measured in response to Norepinephrine (Sigma A-0937, 10^−9–10^−5 M), Acetylcholine (Sigma A-6625, 10^−9–10^−4 M), Sodium Nitroprusside (Calbiochem 56538, 10^−9–10^−4 M), Endothelin-1 (American Peptide Company 88-1-10, 10^−11–10^−8 M) and AI, (American Peptide Company 12-1-10, 10^−8–10^−4 M). Drugs were added extraluminally with a 30 min washout period in between each drug, during which the arteries were able to re-equilibrate to a baseline. To test vasodilatation arteries were pre-contracted with NE to 70% of their equilibration diameter. At least 3 concentration response curves were conducted for each vessel and at least 6 animals were studied for each genotype.

carboxypeptidase activity against ET-1 ([1]; AVSMC of CathA^S190A mice, sodium acetate buffer pH 5.4, 30–180 min at 37°C, 3 independent experiments): ~10% | carboxypeptidase activity against ET-1 ([1]; CathA^S190A/Scpep1^−/− mice, pH 5.4, 37°C): ~6% | carboxypeptidase activity against ET-1 ([1]; Scpep1^−/− mice, relative to WT, pH 5.4, 37°C): ~70%
Substance: endothelin-1 [ET-1]
vessel reactivity versus WT mice (mesenteric arteries; mesenteric arteries of CathA^S190A and Scpep1^−/− mice): higher | vessel reactivity versus all other groups of mice (mesenteric arteries; mesenteric arteries of CathA^S190A/Scpep1^−/− mice): significantly higher
